Experimental data taken from patent US20230073777A1, “CYCLIC-AMP RESPONSE ELEMENT BINDING PROTEIN (CBP) AND/OR ADENOVIRAL E1A BINDING PROTEIN OF 300 KDA (P300) DEGRADATION COMPOUNDS AND METHODS OF USE” (CULLGEN (SHANGHAI), INC., priority 2019, published 2023).
Like-named read-outs stand apart in the source and are kept apart here.

How the values were obtained:
[1] = target: P300 (Homo sapiens, UniProt Q09472); experiment: Immunoblotting of P300 protein levels in LNCaP or 22RV1 cells; type: cell-based; design: LNCaP or 22RV1 cells that express CBP/P300 proteins were treated with GNE-781 or the bivalent compounds; endogenous in cells; host or cells: LNCaP (clone FGC) or 22RV1 cells; details: read-out: Degradation (10 nM)
Method in brief: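 LNCaP or 22RV1 cells treated with compounds for indicated hours, DMSO as negative control. RIPA lysates resolved by SDS-PAGE and immunoblotted for P300 or CBP, tubulin or vinculin as loading control; chemiluminescent bands quantitated.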

[2] = system: LNCaP cells; experiment: LNCaP cell viability assay (CellTiter-Glo); type: cell-based; details: Homo sapiens, 72 h, LNCaP prostate cancer cell viability inhibition, 3 days
Method in brief: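 LNCaP cells, 5000/well, exposed to compounds in 12-point 3-fold serial dilution (top 10 μM) for 3 days. Viability by CellTiter-Glo luminescence, normalized to untreated cells; IC50 by least-squares nonlinear regression.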

[3] = percentage of inhibition of p300 at 10 nM (Table 3)
[4] = percentage of inhibition of p300 at 10 nM (Table 2)

P300, sequence (Q09472 whole entry): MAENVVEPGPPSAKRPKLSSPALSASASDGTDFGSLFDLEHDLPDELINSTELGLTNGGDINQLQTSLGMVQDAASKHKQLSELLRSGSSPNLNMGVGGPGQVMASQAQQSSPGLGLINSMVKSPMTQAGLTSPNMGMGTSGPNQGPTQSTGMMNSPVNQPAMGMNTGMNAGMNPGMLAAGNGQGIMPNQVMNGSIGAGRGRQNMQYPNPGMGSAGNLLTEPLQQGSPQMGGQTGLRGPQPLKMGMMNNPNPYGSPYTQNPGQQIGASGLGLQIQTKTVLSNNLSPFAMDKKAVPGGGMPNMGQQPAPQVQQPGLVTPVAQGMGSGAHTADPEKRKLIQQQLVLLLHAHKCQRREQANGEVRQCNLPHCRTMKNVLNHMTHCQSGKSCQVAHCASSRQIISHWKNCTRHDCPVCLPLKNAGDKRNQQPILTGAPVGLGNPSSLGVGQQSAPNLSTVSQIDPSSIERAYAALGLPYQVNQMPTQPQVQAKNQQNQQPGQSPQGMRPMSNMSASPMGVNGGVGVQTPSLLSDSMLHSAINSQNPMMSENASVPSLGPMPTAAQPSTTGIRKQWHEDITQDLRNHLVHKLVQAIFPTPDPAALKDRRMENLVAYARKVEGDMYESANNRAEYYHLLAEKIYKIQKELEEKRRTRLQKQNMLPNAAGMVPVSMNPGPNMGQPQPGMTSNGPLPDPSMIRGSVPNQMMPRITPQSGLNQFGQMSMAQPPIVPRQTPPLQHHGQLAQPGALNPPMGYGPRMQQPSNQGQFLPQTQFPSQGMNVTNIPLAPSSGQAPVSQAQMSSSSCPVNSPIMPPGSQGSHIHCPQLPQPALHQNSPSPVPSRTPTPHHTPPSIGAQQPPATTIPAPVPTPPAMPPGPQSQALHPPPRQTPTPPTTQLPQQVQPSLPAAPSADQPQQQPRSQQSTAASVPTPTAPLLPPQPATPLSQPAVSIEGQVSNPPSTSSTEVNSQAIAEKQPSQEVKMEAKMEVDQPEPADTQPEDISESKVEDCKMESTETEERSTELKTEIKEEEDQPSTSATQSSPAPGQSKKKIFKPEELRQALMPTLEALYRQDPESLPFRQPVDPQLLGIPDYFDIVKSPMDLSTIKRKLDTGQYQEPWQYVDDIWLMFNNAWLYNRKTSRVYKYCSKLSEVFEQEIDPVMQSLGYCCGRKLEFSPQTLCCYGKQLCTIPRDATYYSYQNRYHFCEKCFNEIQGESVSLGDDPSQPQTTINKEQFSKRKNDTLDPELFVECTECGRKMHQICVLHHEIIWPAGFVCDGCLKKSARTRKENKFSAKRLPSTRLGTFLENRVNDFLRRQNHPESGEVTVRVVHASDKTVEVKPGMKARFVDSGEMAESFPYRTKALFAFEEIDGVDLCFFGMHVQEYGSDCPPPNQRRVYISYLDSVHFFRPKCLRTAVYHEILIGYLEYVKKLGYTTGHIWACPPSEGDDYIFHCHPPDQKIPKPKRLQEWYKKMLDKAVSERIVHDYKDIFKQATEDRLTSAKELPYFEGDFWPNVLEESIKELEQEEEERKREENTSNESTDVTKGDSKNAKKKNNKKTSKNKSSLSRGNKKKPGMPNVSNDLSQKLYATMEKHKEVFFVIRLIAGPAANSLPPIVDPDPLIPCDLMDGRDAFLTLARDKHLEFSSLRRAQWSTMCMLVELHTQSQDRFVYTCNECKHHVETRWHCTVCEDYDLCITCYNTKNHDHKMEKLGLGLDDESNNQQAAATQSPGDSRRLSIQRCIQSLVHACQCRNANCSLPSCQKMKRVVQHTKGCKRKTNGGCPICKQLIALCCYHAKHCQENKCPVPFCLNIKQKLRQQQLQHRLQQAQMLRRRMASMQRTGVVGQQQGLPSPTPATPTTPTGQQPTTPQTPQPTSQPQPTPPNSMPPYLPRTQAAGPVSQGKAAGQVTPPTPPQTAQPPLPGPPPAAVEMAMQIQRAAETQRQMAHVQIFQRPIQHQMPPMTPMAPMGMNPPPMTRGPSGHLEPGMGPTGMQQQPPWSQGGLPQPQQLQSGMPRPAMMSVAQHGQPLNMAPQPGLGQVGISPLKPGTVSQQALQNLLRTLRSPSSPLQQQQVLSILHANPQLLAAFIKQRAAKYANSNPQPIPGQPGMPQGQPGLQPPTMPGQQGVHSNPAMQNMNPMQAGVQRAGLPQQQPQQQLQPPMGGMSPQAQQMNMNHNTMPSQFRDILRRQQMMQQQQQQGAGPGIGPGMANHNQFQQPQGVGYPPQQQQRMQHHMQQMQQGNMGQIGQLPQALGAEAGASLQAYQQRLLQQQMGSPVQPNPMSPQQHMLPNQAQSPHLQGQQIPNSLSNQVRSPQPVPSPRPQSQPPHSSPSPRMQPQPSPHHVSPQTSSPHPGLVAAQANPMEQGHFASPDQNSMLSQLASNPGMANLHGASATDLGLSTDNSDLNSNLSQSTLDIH

Row | Structure (SMILES) | inhibition at 0.01 µM [1, 3] [%] | IC50 ([2]; CellTiter-Glo (Table 3)) [nM] | inhibition at 0.01 µM [1, 4] [%] | IC50 ([2]; CellTiter-Glo (Table 2)) [nM]
1 | CNC(=O)N1CCc2c(c(N3CCCc4cc(-c5cnn(CC(=O)NCCCC(=O)N[C@H](C(=O)N6C[C@H](O)C[C@H]6C(=O)NCc6ccc(-c7scnc7C)cc6)C(C)(C)C)c5)c(C(F)F)cc43)nn2C2CCOCC2)C1 [P-079, 3-(7-(Difluoromethyl)-6-(1-(2-((4-(((S)-1-((2S,4R)-4-hydroxy-2-((4-(4-methylthiazol-5-yl)benzyl)carbamoyl)pyrrolidin-1-yl)-3,3-dimethyl-1-oxobutan-2-yl)amino)-4-oxobutyl)amino)-2-oxoethyl)-1H-pyrazol-4-yl)-3,4-dihydroquinolin-1(2H)-yl)-N-methyl-1-(tetrahydro-2H-pyran-4-yl)-1,4,6,7-tetrahydro-5H-pyrazolo[4,3-c]pyridine-5-carboxamide] | < 20 | > 10000 | – | –
2 | CNC(=O)N1CCc2c(c(N3CCCc4cc(-c5cnn(CC(=O)NCCOCCNc6cccc7c6C(=O)N(C6CCC(=O)NC6=O)C7=O)c5)c(C(F)F)cc43)nn2C2CCOCC2)C1 (centres unmarked) [P-021] | – | – | < 20 | 278
3 | CC(=O)N1CCc2c(c(N3CCCc4cc(-c5cnn(C)c5)c(C(F)F)cc43)nn2C2CCN(C(=O)CCCCCCNc3cccc4c3n(C)c(=O)n4C3CCC(=O)NC3=O)CC2)C1 (centres unmarked) [P-111, 3-(4-((7-(4-(5-acetyl-3-(7-(difluoromethyl)-6-(1-methyl-1H-pyrazol-4-yl)-3,4-dihydroquinolin-1(2H)-yl)-4,5,6,7-tetrahydro-1H-pyrazolo[4,3-c]pyridin-1-yl)piperidin-1-yl)-7-oxoheptyl)amino)-3-methyl-2-oxo-2,3-dihydro-1H-benzo[d]imidazol-1-yl)piperidine-2,6-dione] | > 80 | 7.6 | – | –
4 | CNC(=O)N1CCc2c(c(N3CCCc4cc(-c5cnn(C)c5)c(C(F)F)cc43)nn2C2CCN(C(=O)CN3CCC(CNc4cccc5c4C(=O)N(C4CCC(=O)NC4=O)C5=O)CC3)CC2)C1 (centres unmarked) [P-102] | 50 to 80 | 14.9 | – | –
5 | CC(=O)N1CCc2c(c(N3CCCc4cc(-c5cnn(C)c5)c(C(F)F)cc43)nn2C2CCN(C(=O)CCCCCNc3ccc4c(c3)C(=O)N(C3CCC(=O)NC3=O)C4=O)CC2)C1 (centres unmarked) [P-120, 5-((6-(4-(5-acetyl-3-(7-(difluoromethyl)-6-(1-methyl-1H-pyrazol-4-yl)-3,4-dihydroquinolin-1(2H)-yl)-4,5,6,7-tetrahydro-1H-pyrazolo[4,3-c]pyridin-1-yl)piperidin-1-yl)-6-oxohexyl)amino)-2-(2,6-dioxopiperidin-3-yl)isoindoline-1,3-dione] | > 80 | 9.4 | – | –
6 | CNC(=O)N1CCc2c(c(N3CCCc4cc(-c5cnn(CC(=O)NCCCCCCCNc6ccc7c(c6)C(=O)N(C6CCC(=O)NC6=O)C7=O)c5)c(C(F)F)cc43)nn2C2CCOCC2)C1 (centres unmarked) [P-026, 3-(7-(difluoromethyl)-6-(1-(2-((7-((2-(2,6-dioxopiperidin-3-yl)-1,3-dioxoisoindolin-5-yl)amino)heptyl)amino)-2-oxoethyl)-1H-pyrazol-4-yl)-3,4-dihydroquinolin-1(2H)-yl)-N-methyl-1-(tetrahydro-2H-pyran-4-yl)-1,4,6,7-tetrahydro-5H-pyrazolo[4,3-c]pyridine-5-carboxamide] | – | – | > 80 | 3.2
7 | CC(=O)N1CCc2c(c(N3CCCc4cc(-c5cnn(C)c5)c(C(F)F)cc43)nn2C2CCN(C(=O)CN3CCOC(CCNc4cccc5c4C(=O)N(C4CCC(=O)NC4=O)C5=O)C3)CC2)C1 (centres unmarked) [P-172, 4-((2-(4-(2-(4-(5-Acetyl-3-(7-(difluoromethyl)-6-(1-methyl-1H-pyrazol-4-yl)-3,4-dihydroquinolin-1(2H)-yl)-4,5,6,7-tetrahydro-1H-pyrazolo[4,3-c]pyridin-1-yl)piperidin-1-yl)-2-oxoethyl)morpholin-2-yl)ethyl)amino)-2-(2,6-dioxopiperidin-3-yl)isoindoline-1,3-dione] | 20 to 50 | 56.9 | – | –
8 | CC(=O)N1CCc2c(c(N3CCCc4cc(-c5cnn(C)c5)c(C(F)F)cc43)nn2C2CCN(CCN3CCC(CCc4cccc5c4C(=O)N(C4CCC(=O)NC4=O)C5=O)CC3)CC2)C1 (centres unmarked) [P-157, 4-(2-(1-(2-(4-(5-acetyl-3-(7-(difluoromethyl)-6-(1-methyl-1H-pyrazol-4-yl)-3,4-dihydroquinolin-1(2H)-yl)-4,5,6,7-tetrahydro-1H-pyrazolo[4,3-c]pyridin-1-yl)piperidin-1-yl)ethyl)piperidin-4-yl)ethyl)-2-(2,6-dioxopiperidin-3-yl)isoindoline-1,3-dione] | 50 to 80 | 3.2 | – | –
9 | CNC(=O)N1CCc2c(c(N3CCCc4cc(-c5cnn(C)c5)c(C(F)F)cc43)nn2C2CCN(C(=O)CCCCCNc3ccc4c(c3)n(C)c(=O)n4C3CCC(=O)NC3=O)CC2)C1 (centres unmarked) [P-115, 3-(7-(difluoromethyl)-6-(1-methyl-1H-pyrazol-4-yl)-3,4-dihydroquinolin-1(2H)-yl)-1-(1-(6-((1-(2,6-dioxopiperidin-3-yl)-3-methyl-2-oxo-2,3-dihydro-1H-benzo[d]imidazol-5-yl)amino)hexanoyl)piperidin-4-yl)-N-methyl-1,4,6,7-tetrahydro-5H-pyrazolo[4,3-c]pyridine-5-carboxamide] | > 80 | 7.1 | – | –
10 | CNC(=O)N1CCc2c(c(N3CCCc4cc(-c5cnn(C)c5)c(C(F)F)cc43)nn2C2CCN(C(=O)COCC(=O)N[C@H](C(=O)N3C[C@H](O)C[C@H]3C(=O)NCc3ccc(-c4scnc4C)cc3)C(C)(C)C)CC2)C1 [P-064, 3-(7-(Difluoromethyl)-6-(1-methyl-1H-pyrazol-4-yl)-3,4-dihydroquinolin-1(2H)-yl)-1-(1-(2-(2-(((S)-1-((2S,4R)-4-hydroxy-2-((4-(4-methylthiazol-5-yl)benzyl)carbamoyl)pyrrolidin-1-yl)-3,3-dimethyl-1-oxobutan-2-yl)amino)-2-oxoethoxy)acetyl)piperidin-4-yl)-N-methyl-1,4,6,7-tetrahydro-5H-pyrazolo[4,3-c]pyridine-5-carboxamide] | < 20 | 57.5 | – | –
11 | CC(=O)N1CCc2c(c(N3CCCc4cc(-c5cnn(C)c5)c(C(F)F)cc43)nn2C2CCN(C(=O)CCCCNc3cccc4nc(C)n(C5CCC(=O)NC5=O)c(=O)c34)CC2)C1 (centres unmarked) [P-154, 3-(5-((5-(4-(5-Acetyl-3-(7-(difluoromethyl)-6-(1-methyl-1H-pyrazol-4-yl)-3,4-dihydroquinolin-1(2H)-yl)-4,5,6,7-tetrahydro-1H-pyrazolo[4,3-c]pyridin-1-yl)piperidin-1-yl)-5-oxopentyl)amino)-2-methyl-4-oxoquinazolin-3(4H)-yl)piperidine-2,6-dione] | 20 to 50 | > 1000 | – | –
12 | CNC(=O)N1CCc2c(c(N3CCCc4cc(-c5cnn(C)c5)c(C(F)F)cc43)nn2C2CCN(C(=O)CCCNc3cccc4c3C(=O)N(C3CCC(=O)NC3=O)C4=O)CC2)C1 (centres unmarked) [P-015, 3-(7-(difluoromethyl)-6-(1-methyl-1H-pyrazol-4-yl)-3,4-dihydroquinolin-1(2H)-yl)-1-(1-(4-((2-(2,6-dioxopiperidin-3-yl)-1,3-dioxoisoindolin-4-yl)amino)butanoyl)piperidin-4-yl)-N-methyl-1,4,6,7-tetrahydro-5H-pyrazolo[4,3-c]pyridine-5-carboxamide] | – | – | > 80 | 7.3
13 | CNC(=O)N1CCc2c(c(N3CCCc4cc(-c5cnn(CC(=O)NCCCCNc6ccc7c(c6)C(=O)N(C6CCC(=O)NC6=O)C7=O)c5)c(C(F)F)cc43)nn2C2CCOCC2)C1 (centres unmarked) [P-018] | – | – | 20 to 50 | 59.4
14 | CNC(=O)N1CCc2c(c(N3CCCc4cc(-c5cnn(C)c5)c(C(F)F)cc43)nn2C2CCN(CCCCCCNc3cccc4c3C(=O)N(C3CCC(=O)NC3=O)C4=O)CC2)C1 (centres unmarked) [P-090, 3-(7-(difluoromethyl)-6-(1-methyl-1H-pyrazol-4-yl)-3,4-dihydroquinolin-1(2H)-yl)-1-(1-(6-((2-(2,6-dioxopiperidin-3-yl)-1,3-dioxoisoindolin-4-yl)amino)hexyl)piperidin-4-yl)-N-methyl-1,4,6,7-tetrahydro-5H-pyrazolo[4,3-c]pyridine-5-carboxamide] | > 80 | 1 | – | –
15 | CC(=O)N1CCc2c(c(N3CCCc4cc(-c5cnn(C)c5)c(C(F)F)cc43)nn2C2CCN(CCCCCCNc3cccc4c3C(=O)N(C3CCC(=O)NC3=O)C4=O)CC2)C1 (centres unmarked) [P-112, 4-((6-(4-(5-acetyl-3-(7-(difluoromethyl)-6-(1-methyl-1H-pyrazol-4-yl)-3,4-dihydroquinolin-1(2H)-yl)-4,5,6,7-tetrahydro-1H-pyrazolo[4,3-c]pyridin-1-yl)piperidin-1-yl)hexyl)amino)-2-(2,6-dioxopiperidin-3-yl)isoindoline-1,3-dione] | > 80 | 2.1 | – | –
16 | CC(=O)N1CCc2c(c(N3CCCc4cc(-c5cnn(C)c5)c(C(F)F)cc43)nn2C2CCN(CCc3ccc(COc4cccc5c4CN(C4CCC(=O)NC4=O)C5=O)cc3)CC2)C1 (centres unmarked) [P-173, 3-(4-((4-(2-(4-(5-acetyl-3-(7-(difluoromethyl)-6-(1-methyl-1H-pyrazol-4-yl)-3,4-dihydroquinolin-1(2H)-yl)-4,5,6,7-tetrahydro-1H-pyrazolo[4,3-c]pyridin-1-yl)piperidin-1-yl)ethyl)benzyl)oxy)-1-oxoisoindolin-2-yl)piperidine-2,6-dione] | 20 to 50 | 3.4 | – | –
